Assay results from patent US20230146395A1, “Substituted Pyrimidines and Uses Thereof” (Verge Analytics, Inc., priority 2020, published 2023).
Where a name gives a salt, the structure may show the parent alone.

Biological target: T1, Full length human recombinant PIKFYVE (Homo sapiens, UniProt Q9Y2I7)
T1 construct: Full length human recombinant PIKFYVE; purchased Carna Biosciences (Kobe, Japan); host or cells: baculovirus expression system
Experiment: Inhibition of PIKfyve (microfluidic electrophoresis kinase assay, PI3P/PS substrate)
Assay type: biochemical
Settings: 12 concentrations
Description: Full length human recombinant PIKFYVE expressed in baculovirus expression system as N-terminal GST-fusion protein (265 kDa) was obtained from Carna Biosciences (Kobe, Japan). The kinase substrate was prepared by mixing and sonicating fluorescently-labeled phosphatidylinositol 3-phosphate (PI3P) with phospho-L-serine (PS) at a 1:10 ratio in 50 mM HEPES buffer pH 7.5.
The kinase reactions were assembled in 384-well plates (Greiner) in a total volume of […] as follows. Kinase protein was pre-diluted in an assay buffer comprising 25 mM HEPES, pH 7.5, 1 mM DTT, 2.5 mM MgCl2, and 2.5 mM MnCl2, and 0.005% Triton X-100, and dispensed into a 384-well plate (10 μL per well). Test compounds were serially pre-diluted in DMSO and added to the protein samples by acoustic dispensing (Labcyte Echo). The concentration of DMSO was equalized to 1% in all samples. All test compounds were tested at 12 concentrations. Apilimod was used as a reference compound and was tested in identical manner in each assay plate. Control samples (0%-inhibition, in the absence of inhibitor, DMSO only) and 100%-inhibition (in the absence of enzyme) were assembled in replicates of four and were used to calculate %-inhibition in the presence of compounds. The reactions were initiated by addition of 10 μL of 2×PI3P/PS substrate supplemented with ATP. The final concentration of enzyme was 2 nM, the final concentration of ATP was […], and the final concentration of PI3P/PS substrate was 1 μM (PI3P). The kinase reactions were allowed to proceed for 3 h at room temperature. Following incubation, the reactions were quenched by addition of […] of termination buffer (100 mM HEPES, pH 7.5, 0.01% Triton X-100, 20 mM EDTA). Terminated plates were analyzed on a microfluidic electrophoresis instrument (Caliper LabChip® 3000, Caliper Life Sciences/Perkin Elmer). The change in the relative fluorescence intensity of the PI(3)P substrate and PI(3,5)P product peaks was measured. The activity in each test sample was determined as the product to sum ratio (PSR): P/(S+P), where P is the peak height of the product, and S is the peak height of the substrate. Percent inhibition (Pinh) was determined using the following equation:
Pinh=(PSR0% inh−PSRcompound)/(PSR0% inh−PSR100% inh)*100
in which PSRcompound is the product/sum ratio in the presence of compound, PSR0% inh is the product/sum ratio in the absence of compound, and the PSR100% inh is the product/sum ratio in the absence of the enzyme.

T1 sequence (Q9Y2I7 whole entry): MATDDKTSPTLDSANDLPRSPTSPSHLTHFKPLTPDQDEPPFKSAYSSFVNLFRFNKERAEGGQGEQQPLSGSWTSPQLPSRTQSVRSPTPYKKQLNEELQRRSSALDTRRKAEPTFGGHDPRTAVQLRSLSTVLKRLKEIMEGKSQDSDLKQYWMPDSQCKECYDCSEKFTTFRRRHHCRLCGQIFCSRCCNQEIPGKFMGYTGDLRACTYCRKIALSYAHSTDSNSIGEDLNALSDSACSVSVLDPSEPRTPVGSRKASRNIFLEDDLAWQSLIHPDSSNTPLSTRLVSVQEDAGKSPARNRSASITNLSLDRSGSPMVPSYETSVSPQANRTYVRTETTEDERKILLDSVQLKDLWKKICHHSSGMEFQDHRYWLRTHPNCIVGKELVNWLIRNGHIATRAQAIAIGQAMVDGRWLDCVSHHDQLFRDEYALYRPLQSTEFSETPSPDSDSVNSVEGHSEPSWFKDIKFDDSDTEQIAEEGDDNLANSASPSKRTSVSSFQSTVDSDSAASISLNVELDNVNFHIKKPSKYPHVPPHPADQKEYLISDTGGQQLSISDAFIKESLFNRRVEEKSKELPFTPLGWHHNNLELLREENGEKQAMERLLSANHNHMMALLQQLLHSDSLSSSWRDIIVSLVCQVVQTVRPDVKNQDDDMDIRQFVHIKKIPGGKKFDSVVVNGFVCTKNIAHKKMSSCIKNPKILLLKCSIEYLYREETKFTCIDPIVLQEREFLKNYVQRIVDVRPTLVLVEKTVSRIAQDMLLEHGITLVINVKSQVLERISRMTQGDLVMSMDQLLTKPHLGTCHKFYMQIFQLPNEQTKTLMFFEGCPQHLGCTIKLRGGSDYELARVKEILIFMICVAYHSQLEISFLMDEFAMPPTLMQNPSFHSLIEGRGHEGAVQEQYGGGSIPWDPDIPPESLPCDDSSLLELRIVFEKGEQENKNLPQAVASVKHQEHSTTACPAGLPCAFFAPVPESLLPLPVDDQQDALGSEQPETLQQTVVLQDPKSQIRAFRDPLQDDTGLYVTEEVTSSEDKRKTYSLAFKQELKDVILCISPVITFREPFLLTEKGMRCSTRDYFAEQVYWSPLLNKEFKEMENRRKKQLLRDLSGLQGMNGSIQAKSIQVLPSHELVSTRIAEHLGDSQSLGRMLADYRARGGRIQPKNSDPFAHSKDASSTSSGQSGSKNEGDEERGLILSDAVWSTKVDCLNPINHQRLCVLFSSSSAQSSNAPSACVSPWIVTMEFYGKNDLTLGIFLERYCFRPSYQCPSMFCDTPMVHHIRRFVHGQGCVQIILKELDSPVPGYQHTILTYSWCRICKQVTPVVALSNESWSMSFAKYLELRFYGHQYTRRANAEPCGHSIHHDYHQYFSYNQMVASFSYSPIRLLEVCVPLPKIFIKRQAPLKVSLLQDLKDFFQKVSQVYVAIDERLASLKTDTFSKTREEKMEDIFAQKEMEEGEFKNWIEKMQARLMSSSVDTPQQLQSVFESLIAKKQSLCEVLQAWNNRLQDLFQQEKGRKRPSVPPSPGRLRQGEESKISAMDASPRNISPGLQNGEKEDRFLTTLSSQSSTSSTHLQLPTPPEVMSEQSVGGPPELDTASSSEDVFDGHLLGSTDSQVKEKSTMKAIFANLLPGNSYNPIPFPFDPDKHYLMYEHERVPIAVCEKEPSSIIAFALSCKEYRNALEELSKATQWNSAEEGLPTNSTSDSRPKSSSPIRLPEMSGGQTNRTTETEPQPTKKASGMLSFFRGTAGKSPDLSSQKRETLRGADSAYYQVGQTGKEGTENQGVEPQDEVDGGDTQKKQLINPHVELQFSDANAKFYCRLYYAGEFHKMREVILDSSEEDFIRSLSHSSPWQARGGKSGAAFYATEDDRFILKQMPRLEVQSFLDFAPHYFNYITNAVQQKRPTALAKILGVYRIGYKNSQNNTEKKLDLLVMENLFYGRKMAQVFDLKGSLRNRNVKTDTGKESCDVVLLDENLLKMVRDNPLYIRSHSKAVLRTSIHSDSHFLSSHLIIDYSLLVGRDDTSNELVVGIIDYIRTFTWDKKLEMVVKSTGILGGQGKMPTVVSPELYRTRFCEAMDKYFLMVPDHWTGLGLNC

IC50 [nM]	Structure (SMILES)
205	CN1CCCC(c2cc3nc(Nc4cc(-c5ccccc5)n[nH]4)nc(N4CCOCC4)c3o2)C1 (stereo not shown) [Compound 35, 6-(1-methylpiperidin-3-yl)-4-morpholino-N-(3-phenyl-1H-pyrazol-5-yl)furo[3,2-d]pyrimidin-2-amine hydrochloride]
37	Cc1cccc(-c2cc(Nc3nc(N4CCOCC4)c4oc(C5CCCN(C)C5)cc4n3)[nH]n2)c1 (stereo not shown) [Compound 36]
≥ 10000	CN1CCCC(c2cc3nc(Nc4cc(-c5ccncc5)n[nH]4)nc(N4CCOCC4)c3o2)C1 (stereo not shown) [Compound 37]
131	CN1CCC(c2cc3nc(Nc4cc(-c5ccccc5)n[nH]4)nc(N4CCOCC4)c3o2)C1 (stereo not shown) [Compound 38]
2560	Cc1cccc(-c2cc(Nc3nc(N4CCOCC4)c4oc(C5CCN(C)C5)cc4n3)[nH]n2)c1 (stereo not shown) [Compound 39, 6-(1-methylpyrrolidin-3-yl)-4-morpholino-N-(3-(m-tolyl)-1H-pyrazol-5-yl)furo[3,2-d]pyrimidin-2-amine hydrochloride]
2570	CN1CCC(c2cc3nc(Nc4cc(-c5ccncc5)n[nH]4)nc(N4CCOCC4)c3o2)C1 (stereo not shown) [Compound 40]
34	c1ccc(-c2cnn(-c3nc(N4CCOCC4)c4oc(-c5ccncc5)cc4n3)c2)cc1 [Compound 41, 4-morpholino-2-(4-phenylpyrazol-1-yl)-6-(4-pyridyl)furo[3,2-d]pyrimidine, hydrogen chloride]
9	Cc1cccc(-c2cnn(-c3nc(N4CCOCC4)c4oc(-c5ccncc5)cc4n3)c2)c1 [Compound 42, 4-morpholino-6-(pyridin-4-yl)-2-(4-(m-tolyl)-1H-pyrazol-1-yl)furo[3,2-d]pyrimidine]
2	c1ccc(-c2cc(Nc3nc(N4CCOCC4)c4oc(-c5ccncc5)cc4n3)on2)cc1 [Compound 44, 4-morpholino-N-(3-phenylisoxazol-5-yl)-6-(pyridin-4-yl)furo[3,2-d]pyrimidin-2-amine]
48	c1ccc(-c2coc(Nc3nc(N4CCOCC4)c4oc(-c5ccncc5)cc4n3)n2)cc1 [Compound 45, 4-morpholino-N-(4-phenyloxazol-2-yl)-6-(4-pyridyl)furo[3,2-d]pyrimidin-2-amine, hydrogen chloride]
107	c1ccc(-c2cnc(Nc3nc(N4CCOCC4)c4oc(-c5ccncc5)cc4n3)o2)cc1 [Compound 46, 4-morpholino-N-(5-phenyloxazol-2-yl)-6-(4-pyridyl)furo[3,2-d]pyrimidin-2-amine, hydrogen chloride]
52	c1ccc(-c2nnc(Nc3nc(N4CCOCC4)c4oc(-c5ccncc5)cc4n3)o2)cc1 [Compound 47, 4-morpholino-N-(5-phenyl-1,3,4-oxadiazol-2-yl)-6-(4-pyridyl)furo[3,2-d]pyrimidin-2-amine, hydrogen chloride]
32	c1ccc(-n2ccc(Nc3nc(N4CCOCC4)c4oc(-c5ccncc5)cc4n3)n2)cc1 [Compound 48, 4-morpholino-N-(1-phenylpyrazol-3-yl)-6-(4-pyridyl)furo[3,2-d]pyrimidin-2-amine, hydrogen chloride]
21	c1ccc(-n2cc(Nc3nc(N4CCOCC4)c4oc(-c5ccncc5)cc4n3)cn2)cc1 [Compound 49, 4-morpholino-N-(1-phenylpyrazol-4-yl)-6-(4-pyridyl)furo[3,2-d]pyrimidin-2-amine, hydrogen chloride]
835	c1ccc2c(Nc3nc(N4CCOCC4)c4oc(-c5ccncc5)cc4n3)n[nH]c2c1 [Compound 50, N-(1H-indazol-3-yl)-4-morpholino-6-(pyridin-4-yl)furo[3,2-d]pyrimidin-2-amine hydrochloride]
88	c1ccn2nc(Nc3nc(N4CCOCC4)c4oc(-c5ccncc5)cc4n3)cc2c1 [Compound 51, 4-morpholino-N-pyrazolo[1,5-a]pyridin-2-yl-6-(4-pyridyl)furo[3,2-d]pyrimidin-2-amine, hydrogen chloride]

IC50 [nM]	Structure (SMILES)
47	NC(=O)c1cc2nc(Nc3cc(-c4ccccc4)n[nH]3)nc(N3CCOCC3)c2o1 [Compound 52, 4-morpholino-2-((3-phenyl-1H-pyrazol-5-yl)amino)furo[3,2-d]pyrimidine-6-carboxamide hydrochloride]
60	O=C(c1cc2nc(Nc3cc(-c4ccccc4)n[nH]3)nc(N3CCOCC3)c2o1)N1CCC1 [Compound 53, azetidin-1-yl(4-morpholino-2-((3-phenyl-1H-pyrazol-5-yl)amino)furo[3,2-d]pyrimidin-6-yl)methanone hydrochloride]
66	O=C(c1cc2nc(Nc3cc(-c4ccccc4)[nH]n3)nc(N3CCOCC3)c2o1)N1CCCC1 [Compound 54, [4-morpholino-2-[(5-phenyl-1H-pyrazol-3-yl)amino]furo[3,2-d]pyrimidin-6-yl]-pyrrolidin-1-yl-methanone; hydrogen chloride]
51	O=C(c1cc2nc(Nc3cc(-c4ccccc4)n[nH]3)nc(N3CCOCC3)c2o1)N1CCCCC1 [Compound 55, (4-morpholino-2-((3-phenyl-1H-pyrazol-5-yl)amino)furo[3,2-d]pyrimidin-6-yl)(piperidin-1-yl)methanone hydrochloride]
37	CCN(C)C(=O)c1cc2nc(Nc3cc(-c4ccccc4)[nH]n3)nc(N3CCOCC3)c2o1 [Compound 57, N-ethyl-N-methyl-4-morpholino-2-[(5-phenyl-1H-pyrazol-3-yl)amino]furo[3,2-d]pyrimidine-6-carboxamide, hydrogen chloride]
95	CONC(=O)c1cc2nc(Nc3cc(-c4ccccc4)[nH]n3)nc(N3CCOCC3)c2o1 [Compound 58, N-methoxy-4-morpholino-2-[(5-phenyl-1H-pyrazol-3-yl)amino]furo[3,2-d]pyrimidine-6-carboxamide, hydrogen chloride]
4.3	O=C(NC1CC1)c1cc2nc(Nc3cc(-c4ccccc4)[nH]n3)nc(N3CCOCC3)c2o1 [Compound 59]
70.2	CN(C(=O)c1cc2nc(Nc3cc(-c4ccccc4)[nH]n3)nc(N3CCOCC3)c2o1)C1CC1 [Compound 60, N-cyclopropyl-N-methyl-4-morpholino-2-[(5-phenyl-1H-pyrazol-3-yl)amino]furo[3,2-d]pyrimidine-6-carboxamide, hydrogen chloride]
2.5	O=C(NCC1CC1)c1cc2nc(Nc3cc(-c4ccccc4)[nH]n3)nc(N3CCOCC3)c2o1 [Compound 61, N-(cyclopropylmethyl)-4-morpholino-2-[(5-phenyl-1H-pyrazol-3-yl)amino]furo[3,2-d]pyrimidine-6-carboxamide, hydrogen chloride]
73	CN(CC1CC1)C(=O)c1cc2nc(Nc3cc(-c4ccccc4)[nH]n3)nc(N3CCOCC3)c2o1 [Compound 62, N-(cyclopropylmethyl)-N-methyl-4-morpholino-2-[(5-phenyl-1H-pyrazol-3-yl)amino]furo[3,2-d]pyrimidine-6-carboxamide, hydrogen chloride]
0.9	C[C@@H](NC(=O)c1cc2nc(Nc3cc(-c4ccccc4)n[nH]3)nc(N3CCOCC3)c2o1)C1CC1 [Compound 64, (R)—N-(1-cyclopropylethyl)-4-morpholino-2-((5-phenyl-1H-pyrazol-3-yl)amino)furo[3,2-d]pyrimidine-6-carboxamide hydrochloride]
235	CS(=O)(=O)NC(=O)c1cc2nc(Nc3cc(-c4ccccc4)n[nH]3)nc(N3CCOCC3)c2o1 [Compound 65, N-(methylsulfonyl)-4-morpholino-2-((3-phenyl-1H-pyrazol-5-yl)amino)furo[3,2-d]pyrimidine-6-carboxamide hydrochloride]
612	CN(CC1CC1)C(=O)c1cc2nc(-n3cc(-c4ccccc4)cn3)nc(N3CCOCC3)c2o1 [Compound 66, N-(cyclopropylmethyl)-N-methyl-4-morpholino-2-(4-phenyl-1H-pyrazol-1-yl)furo[3,2-d]pyrimidine-6-carboxamide]
928	O=C(c1cc2nc(-n3cc(-c4ccccc4)cn3)nc(N3CCOCC3)c2o1)N1CCC1 [Compound 67, azetidin-1-yl(4-morpholino-2-(4-phenyl-1H-pyrazol-1-yl)furo[3,2-d]pyrimidin-6-yl)methanone]
185	c1cc(-c2cc3nc(Nc4cc(C5CC5)n[nH]4)nc(N4CCOCC4)c3o2)ccn1 [Compound 68, N-(5-cyclopropyl-1H-pyrazol-3-yl)-4-morpholino-6-(pyridin-4-yl)furo[3,2-d]pyrimidin-2-amine, hydrogen chloride]
